Source: ChEMBL document CHEMBL5518169, “Discovery of a 1,6-naphthyridin-4-one-based AXL inhibitor with improved pharmacokinetics and enhanced in vivo antitumor efficacy” (Eur J Med Chem, 2024)
The source made the active and inactive calls. No cut-off for these calls is given here.

Assays:
[1] = Antitumor activity against mouse BaF3/TEL-AXL cells xenografted in mouse assessed as tumor growth inhibition at 50 mg/kg, po administered for 7 days; type: functional; settings: 168 h, time 7 day, read-out: TGI
[2] = Toxicity in mouse xenografted with mouse BaF3/TEL-AXL cells assessed as body weight loss at 50 mg/kg, po administered for 7 days; type: organism-based; settings: in vivo, 168 h, time 7 day
[3] = Half life in Sprague-Dawley rat at 3 mg/kg, po measured upto 24 hrs by LC-MS/MS analysis; type: ADME, organism-based; settings: in vivo
[4] = Metabolic stability in human liver microsomes assessed as parent compound remaining preincubated with compound for 10 mins followed by NADPH addition and measured after 60 mins by LC-MS/MS analysis; type: ADME, Microsome; settings: time 70 min, read-out: Stability
MKN-45 = test: cells; settings: Homo sapiens, MKN-45, 72 h
Description: Antiproliferative activity against human MKN-45 cells assessed as inhibition of cell proliferation incubated for 72 hrs by CCK-8 assay

[5] = MRT (0 to infinity) in Sprague-Dawley rat at 3 mg/kg, po measured upto 24 hrs by LC-MS/MS analysis; type: ADME, organism-based; settings: in vivo
cells = settings: Mus musculus, BaF3/TEL-AXL, 72 h
Description: Antiproliferative activity against mouse BaF3/TEL-AXL cells assessed as inhibition of cell proliferation incubated for 72 hrs by CCK-8 assay

[6] = Cmax in Sprague-Dawley rat at 3 mg/kg, po measured upto 24 hrs by LC-MS/MS analysis; type: ADME, organism-based; settings: in vivo
[7] = Metabolic stability in human liver microsomes assessed as half life preincubated with compound for 10 mins followed by NADPH addition and measured after 60 mins by LC-MS/MS analysis; type: ADME, Microsome; settings: time 70 min
[8] = AUC (0 to infinity) in Sprague-Dawley rat at 3 mg/kg, po measured upto 24 hrs by LC-MS/MS analysis; type: ADME, organism-based; settings: in vivo
[9] = Tmax in Sprague-Dawley rat at 3 mg/kg, po measured upto 24 hrs by LC-MS/MS analysis; type: ADME, organism-based; settings: in vivo
[10] = target: T1, Tyrosine-protein kinase receptor UFO (Homo sapiens, UniProt P30530)
T1 sequence (P30530 whole entry): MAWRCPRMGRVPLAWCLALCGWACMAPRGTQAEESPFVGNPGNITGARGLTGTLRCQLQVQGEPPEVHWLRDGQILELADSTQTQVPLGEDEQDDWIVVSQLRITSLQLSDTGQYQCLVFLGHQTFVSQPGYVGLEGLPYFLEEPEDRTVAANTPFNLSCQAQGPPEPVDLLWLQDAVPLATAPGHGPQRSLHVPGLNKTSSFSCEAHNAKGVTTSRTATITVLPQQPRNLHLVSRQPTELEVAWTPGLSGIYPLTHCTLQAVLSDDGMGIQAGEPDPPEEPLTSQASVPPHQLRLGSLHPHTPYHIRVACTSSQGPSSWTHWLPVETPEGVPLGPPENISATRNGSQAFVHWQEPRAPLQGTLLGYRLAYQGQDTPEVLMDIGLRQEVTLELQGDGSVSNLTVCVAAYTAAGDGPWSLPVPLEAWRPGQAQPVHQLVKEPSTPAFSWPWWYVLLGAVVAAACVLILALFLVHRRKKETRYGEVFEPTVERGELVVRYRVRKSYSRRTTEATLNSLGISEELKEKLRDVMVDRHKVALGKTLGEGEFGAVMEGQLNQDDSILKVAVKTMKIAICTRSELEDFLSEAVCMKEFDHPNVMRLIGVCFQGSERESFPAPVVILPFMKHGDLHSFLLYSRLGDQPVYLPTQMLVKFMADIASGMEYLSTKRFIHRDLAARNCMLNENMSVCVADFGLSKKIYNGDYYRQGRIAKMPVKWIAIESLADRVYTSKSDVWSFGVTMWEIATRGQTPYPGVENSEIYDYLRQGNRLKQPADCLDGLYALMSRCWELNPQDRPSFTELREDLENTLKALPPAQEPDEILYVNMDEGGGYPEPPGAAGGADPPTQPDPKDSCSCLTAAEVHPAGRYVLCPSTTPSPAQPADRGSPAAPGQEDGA
Description: Inhibition of AXL (unknown origin) by ELISA analysis

[11] = target: T2, Tyrosine-protein kinase receptor UFO (Mus musculus) (UniProt Q00993); test: Inhibition of AXL phosphorylation in mouse BaF3/TEL-AXL cells incubated for 2 hrs by Western blot analysis; type: cell-based; settings: dose 2-500 nM
T2 sequence (whole entry): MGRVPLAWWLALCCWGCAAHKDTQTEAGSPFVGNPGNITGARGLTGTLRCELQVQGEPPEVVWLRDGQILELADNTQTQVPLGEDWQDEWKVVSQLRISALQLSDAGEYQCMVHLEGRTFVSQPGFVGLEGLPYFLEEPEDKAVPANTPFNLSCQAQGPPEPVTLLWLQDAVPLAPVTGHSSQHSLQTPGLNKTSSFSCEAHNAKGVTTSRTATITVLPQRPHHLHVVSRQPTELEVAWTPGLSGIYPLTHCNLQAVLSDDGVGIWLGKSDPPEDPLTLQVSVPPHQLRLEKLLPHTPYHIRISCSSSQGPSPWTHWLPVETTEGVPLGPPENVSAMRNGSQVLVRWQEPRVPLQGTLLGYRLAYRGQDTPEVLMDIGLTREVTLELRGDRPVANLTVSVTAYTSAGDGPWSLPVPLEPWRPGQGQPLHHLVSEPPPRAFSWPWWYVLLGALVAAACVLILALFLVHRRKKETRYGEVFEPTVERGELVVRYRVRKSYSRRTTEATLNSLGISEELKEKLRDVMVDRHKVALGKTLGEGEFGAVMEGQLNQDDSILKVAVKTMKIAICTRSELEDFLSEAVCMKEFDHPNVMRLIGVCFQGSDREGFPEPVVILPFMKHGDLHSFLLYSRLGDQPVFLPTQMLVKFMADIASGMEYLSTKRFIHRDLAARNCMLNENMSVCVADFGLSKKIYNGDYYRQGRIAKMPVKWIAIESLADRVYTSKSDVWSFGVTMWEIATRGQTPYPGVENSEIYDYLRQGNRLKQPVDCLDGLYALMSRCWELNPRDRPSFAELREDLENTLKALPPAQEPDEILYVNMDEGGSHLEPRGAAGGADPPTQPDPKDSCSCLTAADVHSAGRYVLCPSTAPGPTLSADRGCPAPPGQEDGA

[12] = Antitumor activity against mouse BaF3/TEL-AXL cells xenografted in mouse assessed as tumor growth inhibition at 25 mg/kg, po administered for 7 days; type: functional; settings: 168 h, time 7 day, read-out: TGI
[13] = Toxicity in mouse xenografted with mouse BaF3/TEL-AXL cells assessed as body weight loss at 25 to 100 mg/kg, po administered for 7 days; type: organism-based; settings: in vivo, 168 h, dose 25-100 mg/kg, time 7 day
[14] = Antitumor activity against mouse BaF3/TEL-AXL cells xenografted in mouse assessed as tumor growth inhibition at 100 mg/kg, po administered for 7 days; type: functional; settings: 168 h, time 7 day, read-out: TGI
[15] = target: RAC-alpha serine/threonine-protein kinase (Mus musculus) (UniProt P31750); test: Inhibition of AKT phosphorylation in mouse BaF3/TEL-AXL cells incubated for 2 hrs by Western blot analysis; type: cell-based; settings: dose 2-500 nM
RAC-alpha serine/threonine-protein kinase (Mus musculus), sequence (P31750 whole entry): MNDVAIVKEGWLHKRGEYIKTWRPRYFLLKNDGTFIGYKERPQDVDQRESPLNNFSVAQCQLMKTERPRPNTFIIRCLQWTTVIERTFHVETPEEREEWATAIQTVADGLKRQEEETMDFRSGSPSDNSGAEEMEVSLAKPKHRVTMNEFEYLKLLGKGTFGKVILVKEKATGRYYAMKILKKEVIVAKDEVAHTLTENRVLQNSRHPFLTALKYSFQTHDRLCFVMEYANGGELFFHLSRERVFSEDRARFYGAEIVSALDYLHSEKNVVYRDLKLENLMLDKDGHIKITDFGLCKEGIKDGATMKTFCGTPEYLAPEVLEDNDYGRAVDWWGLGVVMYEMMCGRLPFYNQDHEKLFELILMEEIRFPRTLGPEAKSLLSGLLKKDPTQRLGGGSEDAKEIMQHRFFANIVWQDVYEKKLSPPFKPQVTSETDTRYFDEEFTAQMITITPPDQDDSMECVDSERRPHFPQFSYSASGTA

BaF3/TEL-AXL = test: Antitumor activity against mouse BaF3/TEL-AXL cells xenografted in mouse assessed as tumor regression at 50 to 100 mg/kg, po administered for 7 days; type: functional, organism-based; settings: dose 50-100 mg/kg, time 7.0 day

Row | half-life [3] [h] | remaining at 1 h [4] [%] | IC50 (MKN-45) [nM] | MRT inf [5] [h] | IC50 (cells) [nM] | Cmax [6] [ng/mL] | half-life [7] [h] | AUC(0-inf) [8] [ng·h/mL] | Tmax [9] [h] | IC50 [10] [nM] | inhibition [11] | inhibition [15] | SMILES | inhibition in vivo at 50 mg/kg [1] [%] | Activity [2] | inhibition in vivo at 25 mg/kg [12] [%] | Activity [13] | inhibition in vivo at 100 mg/kg [14] [%] | Activity (BaF3/TEL-AXL)
1 |  |  |  |  |  |  |  |  |  |  |  |  | Nc1nc(Nc2ccc3c(c2)CC[C@@H](N2CCCC2)CC3)nn1-c1cc2c(nn1)-c1ccccc1CCC2 [BEMCENTINIB] | 107 | Non-Toxic |  |  |  | 
2 | 3.82 | 47 | > 100 | 5.96 | 1 | 187 | 0.765 | 1300 | 1.5 |  |  |  | CC(C)n1cc(-c2ccc(F)cc2)c(=O)c2c(Nc3ccc(-c4cn(C)c5ncnc(N)c45)c(F)c3)nccc21 |  |  |  |  |  | 
3 |  |  |  |  |  |  |  |  |  | < 0.2 |  |  | CC(C)n1cc(C(=O)Nc2cc(F)c(-c3c[nH]c4ncnc(N)c34)cc2F)c(=O)c(-c2ccc(F)cc2)c1 |  |  |  |  |  | 
4 | 10.1 | 76.3 | > 100 | 16.5 | < 1 | 2910 | 2.57 | 59800 | 2 |  | Dose-Dependent Effect | Dose-Dependent Effect | CC(C)n1cc(-c2ccc(F)cc2)c(=O)c2c(Nc3ccc(-c4cc(-c5cnn(C)c5)cnc4N)c(F)c3)nccc21 | 104 |  | 89.8 | Non-Toxic | 105 | Active
